Measurements taken from patent US20230372263A1, “METHODS AND COMPOSITIONS FOR TREATING AMYOTROPHIC LATERAL SCLEROSIS” (Amylyx Pharmaceuticals, Inc., priority 2022, published 2023).

What was measured:
clinical [1] = format: in vivo, human; conditions: human, in vivo; for AUC(0-t): AUC(0-last)
Description: (§1) • Protocol AMX3500: sparse sampling in 87 subjects with ALS. Approximately 2 samples are collected for each subject, 1 or 4 hours post dose following 12 and 24 weeks of treatment. • Protocol A35-002: rich sampling in 14 healthy adults. Approximately 21 samples are collected over 24 hours for each subject on two occasions, once following a high fat meal and the other under fasting conditions.
A total of 14 healthy subjects were enrolled in order to have no fewer than 12 subjects complete. A predefined mix of gender was selected.
Each study period followed the same study design (FIG. 1). Subjects were screened for inclusion in the study up to 28 days before dosing. Subjects were admitted to the clinical unit during Study Day −2 for Period 1 and Day −1 for Period 2 and were dosed in the morning of Day 1. On the night prior to Period 1 the subjects in the fasted/fed or fed/fasted sequence were fasted for a minimum of 10 h prior to dosing.
The solution was stirred until the powder was mostly dissolved.
Any departures from the intended regimen were recorded in the eCRFs. All dose administrations were performed in the study center under the supervision of appropriately trained staff.
Subjects were provided with a light snack and were then fasted from all food and drink (except water) until the following morning, when they were provided with a high-fat breakfast. The breakfast was consumed over a maximum period of 25 min, and dosing occurred 30 min after the start of breakfast. Subjects were encouraged to eat their meal evenly over the 25 min period. For this trial the subject was deemed compliant if they consumed >80% of the high-fat standard breakfast.
The subjects in the 24-h baseline and in the fasted condition Period remained fasted up to 4 h post-dose and were offered a standardized meal to be taken between 4.00 and 5.00 h post-dose. Subjects in the fed condition were fasted overnight and received a high-fat standard breakfast 30 minutes pre-dose and then remained fasted for 4.00 to 5.00 h post-dose when they received a standardized meal.
Venous blood samples were withdrawn via an indwelling cannula or by venipuncture according to the time schedule presented in Table 5 Table, Table 6, and Table 7.
Blood samples of approximately 4 mL were collected into 4 mL BD Vacutainer Plastic K2EDTA Tubes with Lavender Hemogard Closure, and was gently inverted approximately 8 times. The tubes were then immediately stored on ice and processed within 60 min of collection by centrifugation at 1500 g for 10 min at 2 to 8° C. The resultant plasma was separated equally into 2 aliquots and transferred to 2 mL appropriately labelled primary and backup polypropylene cryovials.
Actual elapsed time from dosing was to be used for the final plasma PK parameter calculations after database lock.

clinical [2] = format: in vivo, human; conditions: human, in vivo; for concentration at 1 h / concentration at 4 h: both sexes
Description: • 1. […] Treatment is administered as one sachet daily for the initial 3 weeks and then increased if tolerated to one sachet twice daily. […] Sampling times are randomly assigned to occur at either 1 or 4 hours post-dose at the 12 week visit and the other time at the 24 week visit. • Treatment duration: 24 weeks • 2.
as §1
Subjects were advised to take the drug before a meal. […] Referred to as protocol 3500.
A study was carried out to examine plasma concentration data in various subgroups for the protocol AMX3500 Phase 2 study. This example summarizes plasma concentrations of TUDCA and 2 metabolites, also related acids, UDCA, the de-conjugated TUDCA metabolite, and GUDCA, the glycine conjugate of UDCA.
For each of the 2 treatment arms (treatment and placebo), subjects were further divided into 2 sample sequence groups for schedule of pharmacokinetic measurements: • 1. 1 hour post-dose for the Week 12 visit and 4 hours post-dose for the Week 24 visit • 2. 4 hours post-dose for the Week 12 visit and 1 hour post-dose for the Week 24 visit
Twenty-four distinct medication descriptions were identified as containing antibiotics. Dates of antibiotic use were compared to dates of visits and if the antibiotic use date range contained the visit date, then that visit was flagged for that subject's data for antibiotic use. […] These antibiotics could hypothetically be in a subject's body still if this event occurred. However, it was observed that only a small number of subjects took antibiotics near to visit dates but not overlapping visit dates. In other cases, subjects were taking antibiotics on the date of one visit but not the others. Some subjects are therefore in both categories of antibiotic use and nonuse, though no individual visits for a subject are counted in both categories at the same time.
Subjects whose race were recorded as “Black” or “African American” were evaluated according to the standard Glomerular Filtration Rate (eGFR) rating for that race. The other standard eGFR rating used, sometimes referred to as a standard for people who are White, was applied to subjects of all other races. These rates were analyzed as continuous in mL/min/1.73 m2 units and as the following categories: • 1. Less than 90 mL/min/1.73 m^2 • 2. Equal to or greater than 90 mL/min/1.73 m^2
Age was converted from a continuous variable to 2 categories: • 1. As old or older than 65 years old • 2. Younger than 65 years old
All boxplots boxes are bounded at the 25th and 75th percentile, with whiskers at 10th and 90th percentiles, outliers beyond that as points, the black line as median, and red line as mean.

[3] = Steady-state plasma concentration

Compound: C[C@H](CCC(=O)NCC(=O)O)[C@H]1CC[C@H]2[C@@H]3[C@@H](O)C[C@@H]4C[C@H](O)CC[C@]4(C)[C@H]3CC[C@]12C [GUDCA, glycoursodeoxycholic acid]
- Tmax (clinical [1]; both sexes, Tmax Median): 16 h
- AUC(0-t) (clinical [1]; both sexes, po, Geometric Mean): 4140 ng·h/mL
- Cmax (clinical [1]; both sexes, po): 381 ng/mL
- Cmax (clinical [1]; both sexes, po, Geometric Mean): 381 ng/mL
- half-life (clinical [1]; both sexes, po, T1/2, Geometric Mean): 12.7 h
- AUC(0-last) Ratio of adj geo means Fed/Fasted (GMR) (clinical [1]; both): 137.31%
- AUG(0-last) (clinical [1]; both): 5060 (88.2) ng.h/ml
- Cmax Ratio of adj geo means Fed/Fasted (GMR) (clinical [1]; both): 134.45%
- MR Cmax (metabolite to parent ratio) (clinical [1]; both): 0.571
- T1/2 (clinical [1]; both): 12.744 h
- increase in AUC(0-last), fed relative to fasted (clinical [1]; both): ~37%
- peak exposure to metabolite as % of that for parent (clinical [1]; both): approximately 51%
- time of maximum plasma concentrations (range) (clinical [1]; both): 6.00 to 20.00 h
- total exposure to metabolite based on AUC(0-last) as % of that for parent (clinical [1]; both): approximately 95%
- AUC(0-last), Adj Geo Mean (clinical [1]; both, po): 4200 ng·h/mL
- AUC(0-last), Max (clinical [1]; both, po): 12000 ng·h/mL
- AUC(0-last), Median (clinical [1]; both, po): 3400 ng·h/mL
- AUC(0-last), Min (clinical [1]; both, po): 1840 ng·h/mL
- AUC(0-last), Ratio of adj geo means Fed/Fasted (clinical [1]; both, po): 137.31%
- Cmax, Adj Geo Mean (clinical [1]; both, po): 382 ng/mL
- Cmax, Max (clinical [1]; both, po): 1420 ng/mL
- Cmax, Median (clinical [1]; both, po): 353 ng/mL
- Cmax, Min (clinical [1]; both, po): 143 ng/mL
- Cmax, Ratio of adj geo means Fed/Fasted (clinical [1]; both, po): 134.45%
- Lambda-z, Geometric Mean (clinical [1]; both, po): 0.0543 h⁻¹
- Lambda-z, Max (clinical [1]; both, po): 0.0544 h⁻¹
- Lambda-z, Median (clinical [1]; both, po): 0.0543 h⁻¹
- Lambda-z, Min (clinical [1]; both, po): 0.0544 h⁻¹
- T1/2, Max (clinical [1]; both, po): 12.74 h
- T1/2, Median (clinical [1]; both, po): 12.744 h
- T1/2, Min (clinical [1]; both, po): 12.74 h
- Tmax, Max (clinical [1]; both, po): 20.00 h
- Tmax, Min (clinical [1]; both, po): 6.00 h
- MR AUC(0-last) (clinical [1]): 1.056
- concentration at 1 h (clinical [2]; Plasma Concentration, Mean): 1020 ng/mL
- concentration at 4 h (clinical [2]; Plasma Concentration, Mean): 1510 ng/mL
- concentration at 1 h (clinical [2]; Plasma Concentration, Median): 773 ng/mL
- concentration at 4 h (clinical [2]; Plasma Concentration, Median): 1500 ng/mL
- concentration at 1 h (clinical [2]; [3]): 1070 ng/mL
- concentration at 4 h (clinical [2]; [3]): 1320 ng/mL
- steady state reached by (clinical [2]; both): ≤ 12 Week
- Plasma Concentration, Median (clinical [2]; both, 1 h): 815.0 ng/mL
- Plasma Concentration, Median (clinical [2]; both, 4 h): 1190.0 ng/mL
- Plasma Concentration, Min (clinical [2]; both, 4 h): 20.0 ng/mL
- accumulation in plasma after once- or twice-daily dosing (clinical [2]): substantial accumulation
- effect of age on steady-state plasma concentration (clinical [2]): no difference
- effect of mild renal insufficiency on steady-state plasma concentration (clinical [2]): no discernible difference
- steady-state plasma concentrations versus endogenous levels (clinical [2]): at least an order of magnitude higher than endogenous levels

Compound: C[C@H](CCC(=O)O)[C@H]1CC[C@H]2[C@@H]3[C@@H](O)C[C@@H]4C[C@H](O)CC[C@]4(C)[C@H]3CC[C@]12C [UDCA, ursodeoxycholic acid]
- AUC(0-inf) (clinical [1]; both sexes, AUC(0-inf)): 11300 ng·h/mL
- AUC(0-t) (clinical [1]; both sexes): 5540 ng·h/mL
- Cmax (clinical [1]; both sexes): 639 ng/mL
- half-life (clinical [1]; both sexes, elimination half-lives (range)): 3.01 to 7.58 h
- Cmax (clinical [1]; both sexes, po): 639 ng/mL
- AUC(0-inf) (clinical [1]; both): 11300 ng·h/mL
- AUC(0-last) Ratio of adj geo means Fed/Fasted (GMR) (clinical [1]; both): 136.34%
- AUG(0-last) (clinical [1]; both): 5540 (72.5) ng.h/ml
- Cmax Ratio of adj geo means Fed/Fasted (GMR) (clinical [1]; both): 112.17%
- Tmax Median (clinical [1]; both): 6.000 h
- increase in AUC(0-last), fed relative to fasted (clinical [1]; both): ~36%
- increase in Cmax, fed relative to fasted (clinical [1]; both): approximately 12%
- peak exposure to metabolite as % of that for parent (clinical [1]; both): approximately 86%
- time of maximum plasma concentrations (range) (clinical [1]; both): 0.25 to 20.00 h
- total exposure to metabolite based on AUC(0-last) as % of that for parent (clinical [1]; both): approximately 127%
- AUC(0-last), Adj Geo Mean (clinical [1]; both, po): 5530 ng·h/mL
- AUC(0-last), Ratio of adj geo means Fed/Fasted (clinical [1]; both, po): 136.34%
- Cmax, Adj Geo Mean (clinical [1]; both, po): 635 ng/mL
- Cmax, Ratio of adj geo means Fed/Fasted (clinical [1]; both, po): 112.17%
- Tmax Median (clinical [1]; both, po): 6.000 h
- concentration at 1 h (clinical [2]; Plasma Concentration, Mean): 1080 ng/mL
- concentration at 4 h (clinical [2]; Plasma Concentration, Mean): 1300 ng/mL
- concentration at 1 h (clinical [2]; Plasma Concentration, Median): 592 ng/mL
- concentration at 4 h (clinical [2]; Plasma Concentration, Median): 920 ng/mL
- concentration at 1 h (clinical [2]; [3]): 910 ng/mL
- concentration at 4 h (clinical [2]; [3]): 1170 ng/mL
- Plasma Concentration, Min (clinical [2]; both): 20.0 ng/mL
- Plasma Concentration, Q1 (clinical [2]; both): 20.0 ng/mL
- steady state reached by (clinical [2]; both): ≤ 12 Week
- Plasma Concentration, Mean (clinical [2]; both, 1 h): 909.9 ng/mL
- Plasma Concentration, Median (clinical [2]; both, 1 h): 614.0 ng/mL
- Plasma Concentration, Min (clinical [2]; both, 4 h): 20.0 ng/mL
- accumulation in plasma after once- or twice-daily dosing (clinical [2]): substantial accumulation
- effect of age on steady-state plasma concentration (clinical [2]): no difference
- effect of mild renal insufficiency on steady-state plasma concentration (clinical [2]): no discernible difference
- steady-state plasma concentrations versus endogenous levels (clinical [2]): at least an order of magnitude higher than endogenous levels
